The source of these data is US20110301142A1, “ANTAGONISTS OF LYSOPHOSPHATIDIC ACID RECEPTORS” (priority 2008, published 2011).

SMILES strings stand for the structures. Bounds are passed on as bounds.

This assay deals with T1, human LPA1 (Homo sapiens, UniProt Q92633).
T1 construct: the full-length cDNA for human LPA1 was obtained by PCR of the reverse transcription reaction; expressed in transfected cells
T1 sequence (Q92633 whole entry): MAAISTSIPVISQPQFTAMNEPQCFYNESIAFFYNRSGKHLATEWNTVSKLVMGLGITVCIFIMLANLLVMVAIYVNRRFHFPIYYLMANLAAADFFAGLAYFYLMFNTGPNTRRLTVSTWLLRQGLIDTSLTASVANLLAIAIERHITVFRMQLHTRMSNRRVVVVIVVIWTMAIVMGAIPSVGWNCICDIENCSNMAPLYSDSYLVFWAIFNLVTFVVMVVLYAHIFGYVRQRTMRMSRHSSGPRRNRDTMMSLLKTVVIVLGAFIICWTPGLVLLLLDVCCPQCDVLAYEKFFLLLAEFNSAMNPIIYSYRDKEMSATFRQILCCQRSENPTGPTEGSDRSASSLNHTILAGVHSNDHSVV
Nature of the assay: LPA1 calcium flux assay (HLPA1 Ca Flux). It is filed as cell-based. The following applies: Human LPA1 expressing CHO cells, stimulated with 10 nM LPA. The procedure: A 1.1 kb cDNA encoding the human LPA1 receptor was cloned from human lung. Human lung RNA (Clontech Laboratories, Inc. USA) was reverse transcribed using the RETROscript kit (Ambion, Inc.) and the full-length cDNA for human LPA1 was obtained by PCR of the reverse transcription reaction. The nucleotide sequence of the cloned human LPA1 was determined by sequencing and confirmed to be identical to the published human LPA1 sequence (An et al. Biochem. Biophys. Res. Commun. 231:619 (1997). The cDNA was cloned into the pcDNAS/FRT expression plasmid and transfected in CHO cells using lipofectamine 2000 (Invitrogen Corp., USA). Clones stably expressing human LPA1 were selected using hygromycin and identified as cells that show Ca-influx in response to LPA.
Human LPA1 or LPA3 expressing CHO cells are seeded at 20,000-45,000 cells per well in a 96-well poly-D-lysine coated plate one or two days before the assay. Prior to the assay, the cells are washed once with PBS and then cultured in serum-free media overnight. On the day of the assay, a calcium indicator dye (Calcium 4, Molecular Devices) in assay buffer (HBSS with Ca^2+ and Mg^2+ and containing 20 mM Hepes and 0.3% fatty-acid free human serum albumin) is added to each well and incubation continued for 1 hour at 37° C. 10 μl of test compounds in 2.5% DMSO are added to the cells and incubation continued at room temperature for 30 minutes. Cells are the stimulated by the addition of 10 nM LPA and intracellular Ca^2+ measured using the Flexstation 3 (Molecular Devices). IC50s are determined using Graphpad prism analysis of drug titration curves.
(In general: Calcium flux is commonly read through the fluorescence of an indicator in the cells.)
For the compound `Cc1noc(-c2ccc(-c3ccc(C(=O)O)cc3)cc2)c1NC(=O)OC(C)C` [Compound 1-125, 4′-(4-Isopropoxycarbonylamino-3-methyl-isoxazol-5-yl)-biphenyl-4-carboxylic acid], the concentration for half-maximal inhibition (IC50) lay within 1000 to 50000 nM. For `COc1ncc(CC(=O)O)cc1-c1cccc(-c2onc(C)c2NC(=O)OC(C)c2ccccc2Cl)c1` (stereo not shown) [Compound 1-38, [5-(3-{4-[1-(2-Chloro-phenyl)-ethoxycarbonylamino]-3-methyl-isoxazol-5-yl}-phenyl)-6-methoxy-pyridin-3-yl]acetic acid] the value was 1000 to 50000 nM; for `Cc1noc(-c2ccc(Cc3cc(C(=O)O)ccc3Cl)cc2)c1NC(=O)OC(C)c1ccccc1Cl` (stereo not shown) [Compound 1-14, 4-Chloro-3-(4-{4-[1-(2-chloro-phenyl)-ethoxycarbonylamino]-3-methyl-isoxazol-5-yl}-benzyl)-benzoic acid], 300 to 1000 nM; for `Cc1noc(-c2cccc(C3CCC(C(=O)O)CC3)c2)c1NC(=O)OC(C)c1ccccc1Cl` (stereo not shown) [Compound 1-46, 4-(3-{4-[1-(2-Chloro-phenyl)-ethoxycarbonylamino]-3-methyl-isoxazol-5-yl}-phenyl)-cyclohexanecarboxylic acid], under 300 nM. The same measure for `Cc1noc(-c2ccc(-c3ccccc3C(=O)O)cc2)c1NC(=O)OC(C)c1ccccc1Cl` (stereo not shown) [Compound 1-52, 4′-{4-[1-(2-Chloro-phenyl)-ethoxycarbonylamino]-3-methyl-isoxazol-5-yl}-biphenyl-2-carboxylic acid]: 1000 to 50000 nM; for `Cc1noc(-c2ccc(-c3ccc(CC(=O)O)cc3)cc2)c1NC(=O)O[C@H](C)c1cc(Br)cc(Br)c1` [Compound 1-141, (4′-{4-[(R)-1-(3,5-Dibromo-phenyl)-ethoxycarbonylamino]-3-methyl-isoxazol-5-yl}-biphenyl-4-yl)-acetic acid]: 1000 to 50000 nM; for `Cc1noc(-c2ccc(-c3ccccc3CC(=O)O)cc2)c1NC(=O)O[C@H](C)c1ccccc1` [Compound 1-123]: 1000 to 50000 nM. For `Cc1noc(-c2cccc(-c3ccccc3CC(=O)O)c2)c1NC(=O)OC(C)c1ccccc1Cl` (stereo not shown) [Compound 1-44, (3′-{4-[1-(2-Chloro-phenyl)-ethoxycarbonylamino]-3-methyl-isoxazol-5-yl}-biphenyl-2-yl)-acetic acid] the value was 1000 to 50000 nM; for `Cc1noc(-c2ccc3cc(-c4ccc(CC(=O)O)cc4)ccc3c2)c1NC(=O)OC(C)c1ccccc1Cl` (stereo not shown) [Compound 3-1], 300 to 1000 nM; for `Cc1noc(-c2cccc(-c3ccccc3C(=O)O)c2)c1NC(=O)OC(C)c1ccccc1Cl` (stereo not shown) [Compound 1-32, 3′-{4-[1-(2-Chloro-phenyl)-ethoxycarbonylamino]-3-methyl-isoxazol-5-yl}-biphenyl-2-carboxylic acid], 300 to 1000 nM. Regarding `CCOC(=O)C(C)c1ccc(-c2ccc(-c3onc(C)c3NC(=O)OC(C)c3ccccc3Cl)cc2)cc1` (stereo not shown) [Compound 1-70, 2-(4′-{4-[1-(2-Chloro-phenyl)-ethoxycarbonylamino]-3-methyl-isoxazol-5-yl}-biphenyl-4-yl)-propionic acid ethyl ester], the IC50 was under 300 nM.

Take `Cc1noc(-c2ccc(-c3cncc(C(=O)O)c3)cc2)c1NC(=O)OC(C)c1ccccc1Cl` (stereo not shown) [Compound 1-55, 5-(4-{4-[1-(2-Chloro-phenyl)-ethoxycarbonylamino]-3-methyl-isoxazol-5-yl}-phenyl)-nicotinic acid]: the concentration for half-maximal inhibition (IC50) was under 300 nM. With `Cc1noc(-c2ccc(Cc3cccc(C(=O)O)c3)cc2)c1NC(=O)OCc1ccccc1Br` [Compound 1-6, 3-{4-[4-(2-Bromo-benzyloxycarbonylamino)-3-methyl-isoxazol-5-yl]-benzyl}-benzoic acid], the IC50 lay in the range of 1000 to 50000 nM. For `Cc1noc(-c2ccc(CSc3cccc(CC(=O)O)c3)cc2)c1NC(=O)OC(C)c1ccccc1Cl` (stereo not shown) [Compound 1-18, [3-(4-{4-[1-(2-Chloro-phenyl)-ethoxycarbonylamino]-3-methyl-isoxazol-5-yl}-benzylsulfanyl)-phenyl]-acetic acid] the value was under 300 nM. The same measure for `Cc1noc(-c2ccc(-c3ccc(CC(=O)O)cc3)cc2)c1NC(=O)OCc1ccccc1Cl` [Compound 1-113, {4′-[4-(2-Chloro-benzyloxycarbonylamino)-3-methyl-isoxazol-5-yl]-biphenyl-4-yl}-acetic acid]: 300 to 1000 nM. As for `Cc1noc(-c2cccc(-c3cccc(C(=O)O)n3)c2)c1NC(=O)OC(C)c1ccccc1Cl` (stereo not shown) [Compound 1-36, 6-(3-{4-[1-(2-Chloro-phenyl)-ethoxycarbonylamino]-3-methyl-isoxazol-5-yl}-phenyl)-pyridine-2-carboxylic acid], the concentration for half-maximal inhibition (IC50) was in the range of 300 to 1000 nM. In the case of `Cc1noc(-c2ccc(Sc3ccccc3CC(=O)O)cc2)c1NC(=O)O[C@H](C)c1ccccc1F` [Compound 1-107, [2-(4-{4-[(R)-1-(2-Fluoro-phenyl)-ethoxycarbonylamino]-3-methyl-isoxazol-5-yl}-phenylsulfanyl)-phenyl]-acetic acid], the IC50 was in the range of 1000 to 50000 nM. On to `Cc1noc(-c2ccc(-c3cccc(C(=O)O)c3)cc2)c1NC(=O)O[C@H](C)c1ccccn1` [Compound 1-11], for which the IC50 fell in the range of 1000 to 50000 nM. In the case of `Cc1noc(-c2csc(-c3cccc(CC(=O)O)c3)n2)c1NC(=O)O[C@H](C)c1ccccc1F` [Compound 3-6, [3-(4-{4-[(R)-1-(2-Fluoro-phenyl)-ethoxycarbonylamino]-3-methyl-isoxazol-5-yl}-thiazol-2-yl)-phenyl]acetic acid], the concentration for half-maximal inhibition (IC50) fell in the range of 300 to 1000 nM. The same measure for `Cc1noc(-c2ccc(-c3ccc(CC(=O)O)cc3)cc2)c1NC(=O)OC(C)(C)C` [Compound 1-136, [4′-(4-tert-Butoxycarbonylamino-3-methyl-isoxazol-5-yl)-biphenyl-4-yl]-acetic acid]: 300 to 1000 nM; for `Cc1noc(-c2ccc(Cc3cc(CC(=O)O)ccc3F)cc2)c1NC(=O)O[C@H](C)c1ccccc1F` [Compound 1-82, [4-Fluoro-3-(4-{4-[(R)-1-(2-fluoro-phenyl)-ethoxycarbonylamino]-3-methyl-isoxazol-5-yl}-benzyl)-phenyl]-acetic acid]: 300 to 1000 nM. For `Cc1noc(-c2ccc(Cc3ccc(C(=O)NC4CC4)cc3)cc2)c1NC(=O)OC(C)c1ccccc1Cl` (stereo not shown) [Compound 2-1, {5-[4-(4-Cyclopropylcarbamoyl-benzyl)-phenyl]-3-methyl-isoxazol-4-yl}-carbamic acid 1-(2-chloro-phenyl)-ethyl ester] the value was under 300 nM.

`Cc1noc(-c2cccc(-c3cncc(C(=O)O)c3)c2)c1NC(=O)OC(C)c1ccccc1Cl` (stereo not shown) [Compound 1-37, 5-(3-{4-[1-(2-Chloro-phenyl)-ethoxycarbonylamino]-3-methyl-isoxazol-5-yl}-phenyl)-nicotinic acid]: the IC50 fell in the range of 1000 to 50000 nM.

Consider `Cc1noc(-c2ccc(OCc3ccc(C(=O)O)cc3)cc2)c1NC(=O)O[C@H](C)c1ccccc1F` [Compound 1-104, 4-(4-{4-[(R)-1-(2-Fluoro-phenyl)-ethoxycarbonylamino]-3-methyl-isoxazol-5-yl}-phenoxymethyl)-benzoic acid], for which the IC50 lay in the range of 1000 to 50000 nM. The same measure for `Cc1noc(-c2cccc(-c3ccc(C(=O)O)nc3)c2)c1NC(=O)OC(C)c1ccccc1Cl` (stereo not shown) [Compound 1-34, 5-(3-{4-[1-(2-Chloro-phenyl)-ethoxycarbonylamino]-3-methyl-isoxazol-5-yl}-phenyl)-pyridine-2-carboxylic acid]: 300 to 1000 nM; for `CCOC(=O)Cc1ccc(Sc2ccc(-c3onc(C)c3NC(=O)O[C@H](C)c3ccccc3F)cc2)cc1` [Compound 1-105, [4-(4-{4-[(R)-1-(2-Fluoro-phenyl)-ethoxycarbonylamino]-3-methyl-isoxazol-5-yl}-phenylsulfanyl)-phenyl]-acetic acid ethyl ester]: 1000 to 50000 nM; for `Cc1noc(-c2cccc(-c3ccc4c(ccn4CC(=O)O)c3)c2)c1NC(=O)OC(C)c1ccccc1Cl` (stereo not shown) [Compound 1-40, [5-(3-{4-[1-(2-Chloro-phenyl)-ethoxycarbonylamino]-3-methyl-isoxazol-5-yl}-phenyl)-indol-1-yl]-acetic acid]: over 50000 nM.

Regarding `Cc1noc(-c2ccc(-c3ccc(CC(=N)N)cc3)cc2)c1NC(=O)O[C@H](C)c1ccccc1F` [Compound 2-6, [5-(4′-Carbamimidoylmethyl-biphenyl-4-yl)-3-methyl-isoxazol-4-yl]-carbamic acid (R)-1-(2-fluoro-phenyl)-ethyl ester], the IC50 is 1000 to 50000 nM. The same measure for `Cc1noc(-c2ccc(CN3CC(C(=O)O)C3)cc2)c1NC(=O)O[C@H](C)c1ccccc1` [Compound 1-140]: 1000 to 50000 nM. The same measure for `Cc1noc(-c2ccc(-c3ccc(C(C)(C)C(=O)O)cc3)cc2)c1NC(=O)OC(C)c1ccccc1Cl` (stereo not shown) [Compound 1-72, 2-(4′-{4-[1-(2-Chloro-phenyl)-ethoxycarbonylamino]-3-methyl-isoxazol-5-yl}-biphenyl-4-yl)-2-methyl-propionic acid]: under 300 nM; for `Cc1noc(-c2cccc(-c3cc(CC(=O)O)ccc3F)c2)c1NC(=O)OC(C)c1ccccc1Cl` (stereo not shown) [Compound 1-42, (3′-{4-[1-(2-Chloro-phenyl)-ethoxycarbonylamino]-3-methyl-isoxazol-5-yl}-6-fluoro-biphenyl-3-yl)-acetic acid]: 1000 to 50000 nM.

In general, IC50 refers to the point on the concentration scale where inhibition reaches its midpoint.
